Laboratory results reported in PubChem BioAssay (NCI).
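Values below derive from 48-hour exposures of cells grown in 96-well plates, with endpoints linearly interpolated between the two concentrations bracketing the appropriate inhibition level. Abbreviation: GI50, concentration required for 50% inhibition of growth. The concentration for full growth arrest is given as TGI.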

How the values were obtained:
Experiment in all cases: growth of human tumour cells (NCI), 48 h
[1] = system: DU-145 prostate
[2] = system: SNB-19 CNS
[3] = system: MDA-MB-435
[4] = system: CAKI-1 renal
[5] = system: MOLT-4 leukemia
[6] = system: EKVX NSCLC
[7] = system: SK-OV-3 ovarian
[8] = system: RXF 393 renal
[9] = system: TK-10 renal
[10] = system: UACC-62 melanoma
[11] = system: SNB-75 CNS
[12] = system: OVCAR-5 ovarian
[13] = system: HOP-92 NSCLC
[14] = system: SN12C renal
[15] = system: HCC-2998 colon
[16] = system: NCI/ADR-RES ovarian
[17] = system: ACHN renal
[18] = system: HCT-15 colon
[19] = system: CCRF-CEM leukemia
[20] = system: NCI-H460 lung
[21] = system: BT-549 breast
[22] = system: MDA-MB-231 breast
[23] = system: SF-295 CNS
[24] = system: PC-3 prostate
[25] = system: MCF7 breast
[26] = system: SK-MEL-28 melanoma
[27] = system: K-562 leukemia
[28] = system: OVCAR-3 ovarian
[29] = system: OVCAR-4 ovarian
[30] = system: 786-0 renal
[31] = system: MALME-3M melanoma
[32] = system: SR leukemia
[33] = system: SF-539 CNS
[34] = system: IGROV1 ovarian
[35] = system: UO-31 renal
[36] = system: OVCAR-8 ovarian
[37] = system: HOP-62 NSCLC
[38] = system: HT29 colon
[39] = system: UACC-257 melanoma
[40] = system: A549 NSCLC
[41] = system: NCI-H23 lung
[42] = system: RPMI-8226 leukemia
[43] = system: NCI-H226 lung
[44] = system: T-47D breast
[45] = system: SF-268 CNS
[46] = system: SW-620 colon
[47] = system: NCI-H522 lung
[48] = system: KM12 colon
[49] = system: U251 CNS
[50] = system: A498 renal
[51] = system: HS 578T breast
[52] = system: HL-60(TB) leukemia
[53] = system: LOX IMVI melanoma
[54] = system: COLO 205 colon
[55] = system: SK-MEL-5 melanoma
[56] = system: SK-MEL-2 melanoma
[57] = system: M14 melanoma
[58] = system: HCT-116 colon

## C=C(C)[C@@H]1CC[C@]2(COP(=O)(OCC)OCC)CC[C@]3(C)[C@H](CC[C@@H]4[C@@]5(C)CCCNC(C)(C)[C@@H]5CC[C@]43C)[C@@H]12
[1]
  GI50: 1790 nM
  TGI: 3390 nM
[2]
  GI50: 1710 nM
  TGI: 3170 nM
[3]
  GI50: 1730 nM
  TGI: 3180 nM
[4]
  GI50: 1500 nM
  TGI: 2990 nM
[5]
  GI50: 1850 nM
  TGI: 4720 nM
[6]
  GI50: 1460 nM
  TGI: 2880 nM
[7]
  GI50: 1690 nM
  TGI: 3250 nM
[8]
  GI50: 1550 nM
  TGI: 2910 nM
[9]
  GI50: 1860 nM
  TGI: 3580 nM
[10]
  GI50: 1700 nM
  TGI: 3200 nM
[11]
  GI50: 1220 nM
  TGI: 2850 nM
[12]
  GI50: 1720 nM
  TGI: 3140 nM
[13]
  GI50: 1230 nM
  TGI: 2570 nM
[14]
  GI50: 1570 nM
  TGI: 3150 nM
[15]
  GI50: 1720 nM
  TGI: 3220 nM
[16]
  GI50: 1660 nM
  TGI: 3260 nM
[17]
  GI50: 1730 nM
  TGI: 3140 nM
[18]
  GI50: 1560 nM
  TGI: 3050 nM
[19]
  GI50: 1710 nM
  TGI: 3850 nM
[20]
  GI50: 1790 nM
  TGI: 4620 nM
[21]
  GI50: 1680 nM
  TGI: 3090 nM
[22]
  GI50: 1750 nM
  TGI: 3330 nM
[23]
  GI50: 1680 nM
  TGI: 3150 nM
[24]
  GI50: 1590 nM
  TGI: 2980 nM
[25]
  GI50: 1330 nM
  TGI: 2970 nM
[26]
  GI50: 1750 nM
  TGI: 3180 nM
[27]
  GI50: 1660 nM
  TGI: 7000 nM
[28]
  GI50: 1670 nM
  TGI: 3380 nM
[29]
  GI50: 1540 nM
  TGI: 3130 nM
[30]
  GI50: 1710 nM
  TGI: 3210 nM
[31]
  GI50: 1680 nM
  TGI: 3370 nM
[32]
  GI50: 1410 nM
  TGI: 4090 nM
[33]
  GI50: 1730 nM
  TGI: 3240 nM
[34]
  GI50: 1610 nM
  TGI: 3180 nM
[35]
  GI50: 1440 nM
  TGI: 2810 nM

## COc1cccc2c1C=CC1(O2)Oc2cccc(OC)c2C=C1C (stereo unspecified)
[36]
  GI50: 1340 nM
  TGI: 6820 nM
[1]
  GI50: 727 nM
  TGI: > 100000 nM
[2]
  GI50: 649 nM
  TGI: > 100000 nM
[3]
  GI50: 226 nM
  TGI: 556 nM
[37]
  GI50: 1490 nM
  TGI: > 100000 nM
[4]
  GI50: 461 nM
  TGI: > 100000 nM
[5]
  GI50: 430 nM
[6]
  GI50: 2110 nM
  TGI: > 100000 nM
[38]
  GI50: 404 nM
[7]
  GI50: 700 nM
  TGI: > 100000 nM
[39]
  GI50: 1510 nM
  TGI: > 100000 nM
[40]
  GI50: 821 nM
  TGI: > 100000 nM
[8]
  GI50: 300 nM
  TGI: 1630 nM
[9]
  GI50: 12200 nM
  TGI: > 100000 nM
[41]
  GI50: 1370 nM
  TGI: > 100000 nM
[11]
  GI50: 218 nM
  TGI: 1510 nM
[42]
  GI50: 352 nM
  TGI: 2350 nM
[43]
  GI50: 1750 nM
  TGI: > 100000 nM
[12]
  GI50: 1300 nM
  TGI: > 100000 nM
[13]
  GI50: 316 nM
[14]
  GI50: 683 nM
  TGI: > 100000 nM
[15]
  GI50: 1430 nM
  TGI: 9320 nM
[16]
  GI50: 417 nM
  TGI: > 81700 nM
[44]
  GI50: 858 nM
  TGI: > 100000 nM
[17]
  GI50: 699 nM
  TGI: > 100000 nM
[18]
  GI50: 420 nM
  TGI: > 43600 nM
[19]
  GI50: 356 nM
  TGI: 3320 nM
[20]
  GI50: 426 nM
  TGI: 2490 nM
[21]
  GI50: 656 nM
  TGI: 6390 nM
[45]
  GI50: 1840 nM
  TGI: > 100000 nM
[46]
  GI50: 434 nM
  TGI: > 100000 nM
[22]
  GI50: 596 nM
  TGI: > 60200 nM
[23]
  GI50: 359 nM
  TGI: > 44200 nM
[47]
  GI50: 290 nM
[24]
  GI50: 376 nM
  TGI: > 36400 nM
[25]
  GI50: 383 nM
  TGI: > 100000 nM
[26]
  GI50: 2880 nM
  TGI: > 100000 nM
[48]
  GI50: 544 nM
  TGI: > 100000 nM
[49]
  GI50: 415 nM
  TGI: 5520 nM
[27]
  GI50: 347 nM
  TGI: > 100000 nM
[50]
  GI50: 486 nM
  TGI: 5430 nM
[29]
  GI50: 6390 nM
  TGI: > 100000 nM
[51]
  GI50: 2100 nM
  TGI: > 100000 nM
[52]
  GI50: 364 nM
  TGI: > 100000 nM
[30]
  GI50: 563 nM
[31]
  GI50: 899 nM
  TGI: 48000 nM
[53]
  GI50: 515 nM
  TGI: 3950 nM
[32]
  GI50: 284 nM
  TGI: 2060 nM
[54]
  GI50: 243 nM
  TGI: 587 nM
[55]
  GI50: 521 nM
  TGI: 11000 nM
[56]
  GI50: 588 nM
[57]
  GI50: 345 nM
  TGI: 4890 nM
[33]
  GI50: 363 nM
  TGI: 1840 nM
[58]
  GI50: 413 nM
  TGI: 10500 nM
[34]
  GI50: 794 nM
  TGI: > 100000 nM
[35]
  GI50: 1270 nM
  TGI: > 100000 nM
